One assay addresses T1, BCL6 (Homo sapiens, UniProt P41182, C67R/C84N/C8Q).
T1 construct: hBCL6-Flag-6H-Avi 3Cmut (5–129) produced as part of the GSK/GenScript collaboration; Flag (C); 6H (His6) (C); Avi (C)
Nature of the assay: Kinetic analyses of covalent modification, intact protein LC-MS. The following applies: 0.5 μM BCL6; 5-100 μM SF; 4 °C. Format: binding. From the text:
(§1) The fluorescence intensity data from the individual replicates of each sample type were normalized and identically truncated within GraphPad Prism 5.0.4.11 These values were subsequently fitted to equation (4) corresponding to a Boltzmann sigmoid in order to obtain the melting temperature (“V50”; T m) of the protein:
(§2) Y=BOTTOM+((TOP+BOTTOM)/(1+exp((V50–X)/SLOPE))) (4)
(§3) The three obtained T m values were averaged to give a final T m value in each case. The normalized fluorescence data for the three replicates of each sample were averaged to yield a single dataset for each case, which were then plotted in GraphPad Prism 5.0.4 to give the plots shown in the manuscript.11
(§4) Table S9. Thermal melting temperatures of unmodified and covalently modified BCL6 BTB/POZ domain as determined by differential scanning fluorimetry measurements.
(§5) The arithmetic mean and standard deviation from three replicates are shown.
(§6) Hit Chemotype Protein Species Tm / °C ΔT m / °C […]
(§7) meta-Substituted Benzamide BCL6 + 2g 70.4 ± 0.3 +11.7
(§8) Azetidinyl Fragments BCL6 + 2h 55.5 ± 0.1 −3.2 […]
8.3. Protocol for kinetic analyzes (BCL6) […]
BCL6 BTB domain (BCL65–129(C8Q,C67R,C84N)-FLAG, 10 µM) was incubated with each compound (500 µM, eq. 0.25% v/v DMSO) in 20 mM Tris pH 8.5 and 150 mM NaCl (2 mL) at 20 °C for 6 h. […] The protein-fragment complex was concentrated to >6 mg/mL, as determined by spectrophotometry. […]

The next assay concerns the target BCL6 BTB/POZ domain (Homo sapiens, UniProt P41182, C67R/C84N/C8Q). In words: Conventional differential scanning fluorimetry (DSF). Format: binding. On the set-up: hBCL6-Flag 3Cmut (5-129) produced in house; FLAG (C); made in house. The following applies: for Tm: 10 μM protein, covalent complex (500 μM SF, 6 or 24 h) or 200 μM GSK137, mean ± SD, three replicates; for ΔTm: relative to unmodified BCL6. On the procedure:
We subsequently analyzed protein-fragment interactions using differential scanning fluorimetry (DSF) to explore the impact of these binding events on protein stability.[45] […] […]; this illustrates the impact of covalent modification on protein–ligand binding. […]
8.2. Conventional differential scanning fluorimetry (DSF)
BCL6-SF covalent complex preparation:
SFs 2f–i, 2p, 2q, 2s, and 2t in DMSO-d 6 (200 mM stock) or pure DMSO-d 6 were added to crystallizable BCL6 BTB/POZ domain (10 µM) in 20 mM Tris pH 8.5 and 200 mM NaCl. The reactions were incubated at 20 °C for 6 h (meta-substituted benzamide fragments) or 24 h (azetidinyl/piperidinyl fragments). Final concentrations: 10 µM protein, 500 µM SF, DMSO 0.25% v/v in 200 µL. Unreacted compound and DMSO-d 6 were removed by buffer-exchanging protein solutions into 20 mM Tris pH 8.5, 200 mM NaCl and 5% v/v glycerol inside Vivaspin 500 PES Centrifugal Concentration units. The protein was concentrated to 0.6–1.3 mg/mL within the units, according to UV-vis absorption spectrophotometry via a Nanodrop ND-1000 instrument. Protein was flash frozen using a dry ice/ethanol bath prior to […]
Differential scanning fluorimetry assay:
GSK137 (40 mM stock) or pure DMSO-d 6 were added to crystallizable BCL6 BTB/POZ domain (11 µM) in 20 mM Tris pH 8.5, 200 mM NaCl and 5% v/v glycerol to give solutions containing: 11 µM protein, DMSO 0.63% v/v and 222 µM GSK137 (where applicable).
Concentrated protein-SF complexes were also thawed and diluted to 11 µM in 20 mM Tris pH 8.5, […] and 5% v/v glycerol.
SYPRO Orange dye (Invitrogen S6650) in extra dilution buffer (50×, eq. 1% v/v DMSO) was added to give assay-ready solutions with final concentrations: 10 µM protein, SYPRO 5×, DMSO 0.1% v/v in volume 80 µL for the protein-SF covalent complexes or 10 µM protein, SYPRO 5×, DMSO 0.6% v/v in volume 100 µL with and without 200 µM GSK137.
Each solution was aliquoted (3 × 20 µL) into wells of an opaque 384-well PCR microplate (Axygen PCR-384-LC480-W) and coated with silicone oil DC 200 (5 µL; Fluka Chemicals 85413). The microplate was centrifuged (1 min, 200 g) prior to insertion into a Fluodia T70 spectrophotometer (Photal Instruments). The fluorescence intensity was detected (emission wavelength: […]) as the plate instrument interior was heated from 27–75 °C using a temperature stepping mode (waiting time before measurement: 60 s; fluorescence measurement interval: 45 s). The approximate temperature gradient was 0.5 °C min-1.
as §1, §2, §3, §4, §5, §6, §7, §8
8.3. Protocol for kinetic analyzes (BCL6)
The (resynthesized and purified) SF hits (2f–i) were plated into seven Greiner 384 white low volume plate from a 10 mM source in DMSO. Differing volumes were added such that the final concentrations for each compound would be: 100, 50, 20, 10, or 5 µM after adding 15 µL of protein stock solution per well. […]

Molecules are shown by their SMILES.

With `CN(C)C(=O)Nc1cccc(CNC(=O)Cc2ccc(S(=O)(=O)F)cc2)c1` [2f], on BCL6, the Ki is 56 µM. For the same compound, at BCL6 BTB/POZ domain, the melting temperature (Tm) is 66.6 ± 0.3 °C and the ΔTm result was “+7.9 °C”.
In turn, `CC(=O)Nc1cccc(CNC(=O)Cc2ccc(S(=O)(=O)F)cc2)c1` [2g] had a Ki on BCL6 of 80 µM. In addition, on BCL6 BTB/POZ domain, the Tm was 70.4 ± 0.3 °C and the thermal shift (ΔTm) entry was “+11.7 °C”.
Consider `O=C(Cc1ccc(S(=O)(=O)F)cc1)N1CC(Oc2ccc(F)c(F)c2)C1` [2h], for which, on BCL6 BTB/POZ domain, the midpoint of thermal melting (Tm) was 55.5 ± 0.1 °C and the thermal shift (ΔTm) is −3.2 °C.
Taken in the same sequence, the figures for `NC(=O)c1ccccc1OC1CN(C(=O)Cc2ccc(S(=O)(=O)F)cc2)C1` [2i] were 59.9 ± 0.4 °C and “+1.2 °C”.

The values above are taken from paper PMC10510102, “Efficient Ligand Discovery Using Sulfur(VI) Fluoride Reactive Fragments” (ACS Chemical Biology, 2023).
